Measurements taken from the NIST ThermoML archive (doi:10.1016/j.jct.2010.06.011).
± gives the expanded uncertainty stated by the source.

Experiment: xn = mol fraction of the nth substance listed
Conditions: Liquid, Vibrating tube method

COC(=O)OC [dimethyl carbonate] + CCCCCC
mass density [kg/m3]
Conditions | 100 kPa | 5000 kPa | 10000 kPa | 20000 kPa | 30000 kPa | 40000 kPa
293.15 K, x1 = 0.1 | 684.2 ± 0.3 | 689.7 ± 0.3 | 694.6 ± 0.4 | 703.9 ± 0.4 | 712.2 ± 0.5 | 719.8 ± 0.6
293.15 K, x1 = 0.2 | 712 ± 0.3 | 717.6 ± 0.4 | 722.6 ± 0.4 | 732 ± 0.4 | 740.4 ± 0.5 | 748.1 ± 0.6
293.15 K, x1 = 0.3 | 742.7 ± 0.3 | 748.3 ± 1.5 | 753.3 ± 0.3 | 762.8 ± 0.4 | 771.3 ± 0.5 | 779.2 ± 0.5
293.15 K, x1 = 0.4 | 776.5 ± 0.3 | 782.1 ± 1.6 | 787.2 ± 0.4 | 796.7 ± 0.4 | 805.3 ± 0.4 | 813.2 ± 0.5
293.15 K, x1 = 0.5 | 813.8 ± 0.4 | 819.4 ± 0.4 | 824.5 ± 0.4 | 834 ± 0.4 | 842.6 ± 0.4 | 850.6 ± 0.5
293.15 K, x1 = 0.6 | 855 ± 0.4 | 860.5 ± 0.4 | 865.5 ± 0.4 | 875 ± 0.4 | 883.6 ± 0.4 | 891.5 ± 0.4
293.15 K, x1 = 0.7 | 900.5 ± 0.4 | 905.9 ± 0.8 | 910.9 ± 0.3 | 920.2 ± 0.3 | 928.7 ± 0.3 | 936.6 ± 0.4
293.15 K, x1 = 0.8 | 951.6 ± 0.4 | 956.8 ± 0.7 | 961.6 ± 0.3 | 970.7 ± 0.3 | 978.9 ± 0.3 | 986.8 ± 0.3
293.15 K, x1 = 0.9 | 1008.5 ± 0.3 | 1013.4 ± 0.3 | 1018 ± 0.3 | 1026.7 ± 0.3 | 1034.6 ± 0.3 | 1042.3 ± 0.3
293.15 K, x1 = 0.95 | 1038.4 ± 0.3 | 1043.2 ± 0.3 | 1047.6 ± 0.3 | 1056.1 ± 0.3 | 1063.9 ± 0.3 | 1071.5 ± 0.3
293.15 K, x1 = 1 | 1069.8 ± 0.3 | 1074.4 ± 0.3 | 1078.6 ± 0.3 | 1086.9 ± 0.3 | 1094.5 ± 0.3 | 1101.9 ± 0.4
298.15 K, x1 = 0.1 | 679.5 ± 0.3 | 685.1 ± 0.3 | 690.3 ± 0.3 | 699.8 ± 0.4 | 708.4 ± 0.5 | 716 ± 0.6
298.15 K, x1 = 0.2 | 707 ± 0.3 | 712.8 ± 1.1 | 718 ± 0.4 | 727.7 ± 0.4 | 736.4 ± 0.5 | 744.2 ± 0.6
298.15 K, x1 = 0.3 | 737.5 ± 0.3 | 743.3 ± 1.6 | 748.6 ± 0.4 | 758.3 ± 0.4 | 767.2 ± 0.5 | 775.1 ± 0.5
298.15 K, x1 = 0.4 | 771.1 ± 0.3 | 776.9 ± 1.8 | 782.2 ± 0.4 | 792 ± 0.4 | 800.9 ± 0.4 | 808.9 ± 0.5
298.15 K, x1 = 0.5 | 808.2 ± 0.3 | 814 ± 0.4 | 819.3 ± 0.4 | 829.1 ± 0.4 | 838 ± 0.4 | 846.1 ± 0.5
298.15 K, x1 = 0.6 | 849.2 ± 0.3 | 854.9 ± 0.3 | 860.2 ± 0.3 | 869.9 ± 0.4 | 878.8 ± 0.4 | 886.9 ± 0.4
298.15 K, x1 = 0.7 | 894.5 ± 0.3 | 900.2 ± 1.1 | 905.3 ± 0.3 | 914.9 ± 0.3 | 923.7 ± 0.3 | 931.7 ± 0.3
298.15 K, x1 = 0.8 | 945.4 ± 0.3 | 950.8 ± 0.3 | 955.8 ± 0.3 | 965.1 ± 0.3 | 973.7 ± 0.3 | 981.6 ± 0.3
298.15 K, x1 = 0.9 | 1002.1 ± 0.3 | 1007.3 ± 0.3 | 1012 ± 0.3 | 1020.8 ± 0.3 | 1029.1 ± 0.3 | 1036.9 ± 0.3
298.15 K, x1 = 0.95 | 1032 ± 0.3 | 1036.9 ± 0.3 | 1041.5 ± 0.3 | 1050.2 ± 0.3 | 1058.2 ± 0.3 | 1065.9 ± 0.3
298.15 K, x1 = 1 | 1063.2 ± 0.3 | 1068 ± 0.3 | 1072.4 ± 0.3 | 1080.8 ± 0.3 | 1088.7 ± 0.3 | 1096.2 ± 0.4
303.15 K, x1 = 0.1 | 674.6 ± 0.3 | 680.3 ± 0.3 | 685.7 ± 0.4 | 695.6 ± 0.4 | 704.3 ± 0.5 | 712.2 ± 0.6
303.15 K, x1 = 0.2 | 701.9 ± 0.3 | 707.7 ± 0.3 | 713.3 ± 0.4 | 723.3 ± 0.4 | 732.2 ± 0.5 | 740.2 ± 0.6
303.15 K, x1 = 0.3 | 732.2 ± 0.3 | 738 ± 2.1 | 743.6 ± 0.4 | 753.7 ± 0.4 | 762.7 ± 0.5 | 770.9 ± 0.5
303.15 K, x1 = 0.4 | 765.6 ± 0.3 | 771.5 ± 0.9 | 777.1 ± 0.3 | 787.2 ± 0.4 | 796.3 ± 0.4 | 804.6 ± 0.5
303.15 K, x1 = 0.5 | 802.5 ± 0.3 | 808.3 ± 0.4 | 813.9 ± 0.4 | 824.1 ± 0.4 | 833.3 ± 0.4 | 841.6 ± 0.5
303.15 K, x1 = 0.6 | 843.3 ± 0.3 | 849.5 ± 0.3 | 855 ± 0.3 | 865 ± 0.4 | 874.1 ± 0.4 | 882.3 ± 0.4
303.15 K, x1 = 0.7 | 888.5 ± 0.3 | 894.5 ± 1.9 | 899.9 ± 0.3 | 909.8 ± 0.3 | 918.7 ± 0.3 | 926.9 ± 0.3
303.15 K, x1 = 0.8 | 939.1 ± 0.3 | 944.8 ± 0.3 | 950 ± 0.3 | 959.7 ± 0.3 | 968.5 ± 0.3 | 976.5 ± 0.3
303.15 K, x1 = 0.9 | 995.7 ± 0.3 | 1000.9 ± 0.3 | 1005.9 ± 0.3 | 1015.1 ± 0.3 | 1023.6 ± 0.3 | 1031.4 ± 0.3
303.15 K, x1 = 0.95 | 1025.4 ± 0.3 | 1030.4 ± 0.3 | 1035.2 ± 0.3 | 1044.2 ± 0.3 | 1052.6 ± 0.3 | 1060.2 ± 0.3
303.15 K, x1 = 1 | 1056.5 ± 0.3 | 1061.3 ± 0.3 | 1066 ± 0.3 | 1074.7 ± 0.3 | 1082.9 ± 0.3 | 1090.4 ± 0.4
308.15 K, x1 = 0.1 | 669.8 ± 0.3 | 675.7 ± 0.3 | 681.4 ± 0.4 | 691.5 ± 0.4 | 700.6 ± 0.5 | 708.6 ± 0.6
308.15 K, x1 = 0.2 | 696.9 ± 0.3 | 703 ± 1.3 | 708.7 ± 0.4 | 719 ± 0.4 | 728.3 ± 0.5 | 736.4 ± 0.6
308.15 K, x1 = 0.3 | 727 ± 0.3 | 733.1 ± 0.8 | 738.8 ± 0.4 | 749.3 ± 0.4 | 758.7 ± 0.5 | 766.9 ± 0.5
308.15 K, x1 = 0.4 | 760.2 ± 0.3 | 766.3 ± 0.5 | 772 ± 0.3 | 782.6 ± 0.4 | 792.1 ± 0.4 | 800.4 ± 0.5
308.15 K, x1 = 0.5 | 796.9 ± 0.3 | 802.9 ± 0.4 | 808.7 ± 0.4 | 819.2 ± 0.4 | 828.8 ± 0.4 | 837.2 ± 0.5
308.15 K, x1 = 0.6 | 837.4 ± 0.3 | 843.8 ± 0.3 | 849.5 ± 0.3 | 859.9 ± 0.4 | 869.4 ± 0.4 | 877.7 ± 0.4
308.15 K, x1 = 0.7 | 882.5 ± 0.3 | 888.6 ± 1.5 | 894.2 ± 0.3 | 904.4 ± 0.3 | 913.8 ± 0.3 | 922.1 ± 0.3
308.15 K, x1 = 0.8 | 932.8 ± 0.3 | 938.7 ± 0.4 | 944.1 ± 0.3 | 954.1 ± 0.3 | 963.2 ± 0.3 | 971.5 ± 0.3
308.15 K, x1 = 0.9 | 989.2 ± 0.3 | 994.6 ± 0.3 | 999.7 ± 0.3 | 1009.3 ± 0.3 | 1018.1 ± 0.3 | 1026.1 ± 0.3
308.15 K, x1 = 0.95 | 1018.8 ± 0.3 | 1023.8 ± 0.3 | 1028.8 ± 0.3 | 1038.1 ± 0.3 | 1046.8 ± 0.3 | 1054.7 ± 0.3
308.15 K, x1 = 1 | 1049.8 ± 0.3 | 1054.6 ± 0.3 | 1059.4 ± 0.3 | 1068.5 ± 0.3 | 1077 ± 0.3 | 1084.8 ± 0.3
313.15 K, x1 = 0.1 | 664.8 ± 0.3 | 671.1 ± 0.3 | 677 ± 0.3 | 687.5 ± 0.4 | 696.7 ± 0.5 | 705 ± 0.6
313.15 K, x1 = 0.2 | 691.7 ± 0.3 | 698 ± 0.9 | 704.1 ± 0.3 | 714.7 ± 0.4 | 724.2 ± 0.5 | 732.6 ± 0.6
313.15 K, x1 = 0.3 | 721.5 ± 0.3 | 727.8 ± 2.5 | 733.9 ± 0.4 | 744.7 ± 0.4 | 754.3 ± 0.5 | 762.9 ± 0.5
313.15 K, x1 = 0.4 | 754.5 ± 0.3 | 760.9 ± 0.7 | 767 ± 0.3 | 777.9 ± 0.4 | 787.5 ± 0.4 | 796.3 ± 0.5
313.15 K, x1 = 0.5 | 791 ± 0.3 | 797.4 ± 0.3 | 803.4 ± 0.4 | 814.3 ± 0.4 | 824 ± 0.4 | 832.8 ± 0.5
313.15 K, x1 = 0.6 | 831.4 ± 0.3 | 837.6 ± 0.3 | 843.7 ± 0.3 | 854.5 ± 0.4 | 864.1 ± 0.4 | 872.9 ± 0.4
313.15 K, x1 = 0.7 | 876.3 ± 0.3 | 882.4 ± 1 | 888.3 ± 0.3 | 898.9 ± 0.3 | 908.5 ± 0.3 | 917.2 ± 0.3
313.15 K, x1 = 0.8 | 926.4 ± 0.3 | 932.2 ± 0.3 | 937.9 ± 0.3 | 948.2 ± 0.3 | 957.6 ± 0.3 | 966.1 ± 0.2
313.15 K, x1 = 0.9 | 982.5 ± 0.3 | 988 ± 0.3 | 993.4 ± 0.3 | 1003.2 ± 0.3 | 1012.2 ± 0.3 | 1020.6 ± 0.3
313.15 K, x1 = 0.95 | 1012.1 ± 0.3 | 1017.4 ± 0.3 | 1022.5 ± 0.3 | 1032.1 ± 0.3 | 1041 ± 0.3 | 1049.1 ± 0.3
313.15 K, x1 = 1 | 1043 ± 0.3 | 1048.1 ± 0.3 | 1053 ± 0.3 | 1062.3 ± 0.3 | 1071 ± 0.3 | 1079 ± 0.3
